In patent US6469001B1, “IL-5 inhibiting 6-azauracil derivatives” (priority 1998, dated 2002):

Test system: IL-5 production in human blood
Assay: in vitro inhibition of IL-5 production in human blood (whole blood stimulated with phytohemagglutinin, IL-5 by ELISA)
Assay type: cell-based
Settings: test dose 1×10^−6 M, phytohemagglutinin HA17 stimulation, 48 hours, read-out: % inh. (percentage inhibition of IL-5 production)
Experimental: in vitro Inhibition of IL-5 Production in Human Blood
Human Whole Blood Stimulation
Peripheral blood from healthy male donors was drawn into heparinized syringes (12.5 U heparin/ml). Blood samples were three-fold diluted in RMPI 1640 medium (Life Technologies, Belgium) supplemented with 2 mM L-glutamine, 100 U/ml penicillin and […] streptomycin, and […] fractions were distributed in 24-well multidisc plates. Blood samples were preincubated (60 minutes at 37° C.) in a humidified 6% CO2-atmosphere with 100 ml of drug solvent (final concentration 0.02% dimethylsulfoxide in RPMI 1640) or with 100 ml of an appropriate dose of test compound before being stimulated by the addition of […] of phytohemagglutinin HA17 (Murex, UK) at a final concentration of […]. After 48 hours, cell-free supernatant fluids were collected by centrifugation and stored at −70° C. until tested for the presence of IL-5.
IL-5 measurements were conducted as described in Van Wauwe et al. (1996, Inflamm Res, 45, 357-363) on page 358 using ELISA.
Table 1 lists the percentage inhibition of IL-5 production (column “% inh”) at a test dose of 1×10^−6 M for the compounds of the present invention.

Compound	inhibition at 1 µM
CS(=O)(=O)c1ccc(C2(C(N)=S)CCc3cc(-n4ncc(=O)[nH]c4=O)ccc32)cc1 (centres unmarked) [Compound 6]	6%
Cc1sc(C2(c3ccc(S(C)(=O)=O)cc3)CCc3cc(-n4ncc(=O)[nH]c4=O)ccc32)nc1-c1ccccc1 (centres unmarked) [Compound 7]	39%
